Activity calls are given as the source filed them. Rule as the data show it: actives have a measured IC50 and inactives only a lower limit.

For the assay, the target named is Envelope glycoprotein gp160 (Human immunodeficiency virus 1, UniProt Q6QLK5). The experiment in a line: cell-free HIV fusion peptide-binding blockers – biochemical, uHTS, fluorescence dequenching, […] (AID 1986).
Sequence of Envelope glycoprotein gp160 (Q6QLK5 whole entry, the tested form may be a part): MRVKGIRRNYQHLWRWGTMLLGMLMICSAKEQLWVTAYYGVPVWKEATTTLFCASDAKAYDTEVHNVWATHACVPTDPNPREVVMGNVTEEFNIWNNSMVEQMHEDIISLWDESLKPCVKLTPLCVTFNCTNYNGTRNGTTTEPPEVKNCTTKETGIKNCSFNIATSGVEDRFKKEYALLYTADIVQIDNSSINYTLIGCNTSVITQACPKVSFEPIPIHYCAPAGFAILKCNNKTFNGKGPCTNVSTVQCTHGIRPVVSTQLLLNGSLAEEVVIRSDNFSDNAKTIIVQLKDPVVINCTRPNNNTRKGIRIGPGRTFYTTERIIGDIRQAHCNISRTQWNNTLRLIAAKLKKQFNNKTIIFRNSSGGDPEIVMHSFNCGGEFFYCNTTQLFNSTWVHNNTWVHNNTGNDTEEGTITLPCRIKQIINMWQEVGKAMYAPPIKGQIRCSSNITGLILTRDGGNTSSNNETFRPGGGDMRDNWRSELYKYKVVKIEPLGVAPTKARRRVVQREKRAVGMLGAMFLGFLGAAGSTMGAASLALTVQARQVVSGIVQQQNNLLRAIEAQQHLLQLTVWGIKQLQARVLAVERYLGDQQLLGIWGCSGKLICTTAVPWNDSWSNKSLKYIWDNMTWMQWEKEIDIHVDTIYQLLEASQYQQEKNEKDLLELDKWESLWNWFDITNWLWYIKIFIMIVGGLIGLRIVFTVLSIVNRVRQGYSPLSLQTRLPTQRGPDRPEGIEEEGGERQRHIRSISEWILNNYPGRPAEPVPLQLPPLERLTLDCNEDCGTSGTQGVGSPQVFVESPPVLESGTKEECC
Regarding `COc1ccc(NS(=O)(=O)c2ccc3c(c2)[C@H]2C=CC[C@H]2[C@@H](c2ccc(C(=O)O)cc2)N3)cc1`, the 50% inhibitory concentration (IC50) (in general, the point on the concentration scale where inhibition reaches its midpoint) is 8.25 µM (active). The result for `O=C1/C(=C\c2ccc(O)c(O)c2)C(c2ccccc2)=NN1c1ccccc1` reads 17.6 µM (active). The result for `CC(C)S(=O)(=O)C1=NSC2=NC(=O)/C(=C\c3ccc(-c4ccccc4)o3)C(=N)N21` reads 8.73 µM (active).

Source of the values: ChEMBL document CHEMBL1201862, “PubChem BioAssay data set” (2004).
